Laboratory results taken from publication PMC12259270, “Sensory neuron–expressed FGF13 controls nociceptive signaling in diabetic neuropathy models” (The Journal of Clinical Investigation, 2025).
Where “and” joins values, the source holds several entries; their conditions need not be identical. Equal values may be shown once. Residues, ends and D or L forms follow the SMILES beside them. *: point of attachment. NHPh = c1ccc(N*)cc1

Biological target: T1, human Nav1.7 (Homo sapiens, UniProt Q15858)
T1 construct: expressed in transfected cells; host or cells: HEK293 stably expressing human Nav1.7
T1 sequence (Q92913 1-192 partner limits assumed): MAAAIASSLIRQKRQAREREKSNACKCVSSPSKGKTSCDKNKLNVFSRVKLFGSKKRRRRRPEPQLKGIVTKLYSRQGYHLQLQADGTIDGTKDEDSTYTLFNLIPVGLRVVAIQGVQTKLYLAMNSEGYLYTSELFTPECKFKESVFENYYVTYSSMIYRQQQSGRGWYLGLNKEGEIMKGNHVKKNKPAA
T1 sequence (Q15858 1-1977 isoform Q15858-3): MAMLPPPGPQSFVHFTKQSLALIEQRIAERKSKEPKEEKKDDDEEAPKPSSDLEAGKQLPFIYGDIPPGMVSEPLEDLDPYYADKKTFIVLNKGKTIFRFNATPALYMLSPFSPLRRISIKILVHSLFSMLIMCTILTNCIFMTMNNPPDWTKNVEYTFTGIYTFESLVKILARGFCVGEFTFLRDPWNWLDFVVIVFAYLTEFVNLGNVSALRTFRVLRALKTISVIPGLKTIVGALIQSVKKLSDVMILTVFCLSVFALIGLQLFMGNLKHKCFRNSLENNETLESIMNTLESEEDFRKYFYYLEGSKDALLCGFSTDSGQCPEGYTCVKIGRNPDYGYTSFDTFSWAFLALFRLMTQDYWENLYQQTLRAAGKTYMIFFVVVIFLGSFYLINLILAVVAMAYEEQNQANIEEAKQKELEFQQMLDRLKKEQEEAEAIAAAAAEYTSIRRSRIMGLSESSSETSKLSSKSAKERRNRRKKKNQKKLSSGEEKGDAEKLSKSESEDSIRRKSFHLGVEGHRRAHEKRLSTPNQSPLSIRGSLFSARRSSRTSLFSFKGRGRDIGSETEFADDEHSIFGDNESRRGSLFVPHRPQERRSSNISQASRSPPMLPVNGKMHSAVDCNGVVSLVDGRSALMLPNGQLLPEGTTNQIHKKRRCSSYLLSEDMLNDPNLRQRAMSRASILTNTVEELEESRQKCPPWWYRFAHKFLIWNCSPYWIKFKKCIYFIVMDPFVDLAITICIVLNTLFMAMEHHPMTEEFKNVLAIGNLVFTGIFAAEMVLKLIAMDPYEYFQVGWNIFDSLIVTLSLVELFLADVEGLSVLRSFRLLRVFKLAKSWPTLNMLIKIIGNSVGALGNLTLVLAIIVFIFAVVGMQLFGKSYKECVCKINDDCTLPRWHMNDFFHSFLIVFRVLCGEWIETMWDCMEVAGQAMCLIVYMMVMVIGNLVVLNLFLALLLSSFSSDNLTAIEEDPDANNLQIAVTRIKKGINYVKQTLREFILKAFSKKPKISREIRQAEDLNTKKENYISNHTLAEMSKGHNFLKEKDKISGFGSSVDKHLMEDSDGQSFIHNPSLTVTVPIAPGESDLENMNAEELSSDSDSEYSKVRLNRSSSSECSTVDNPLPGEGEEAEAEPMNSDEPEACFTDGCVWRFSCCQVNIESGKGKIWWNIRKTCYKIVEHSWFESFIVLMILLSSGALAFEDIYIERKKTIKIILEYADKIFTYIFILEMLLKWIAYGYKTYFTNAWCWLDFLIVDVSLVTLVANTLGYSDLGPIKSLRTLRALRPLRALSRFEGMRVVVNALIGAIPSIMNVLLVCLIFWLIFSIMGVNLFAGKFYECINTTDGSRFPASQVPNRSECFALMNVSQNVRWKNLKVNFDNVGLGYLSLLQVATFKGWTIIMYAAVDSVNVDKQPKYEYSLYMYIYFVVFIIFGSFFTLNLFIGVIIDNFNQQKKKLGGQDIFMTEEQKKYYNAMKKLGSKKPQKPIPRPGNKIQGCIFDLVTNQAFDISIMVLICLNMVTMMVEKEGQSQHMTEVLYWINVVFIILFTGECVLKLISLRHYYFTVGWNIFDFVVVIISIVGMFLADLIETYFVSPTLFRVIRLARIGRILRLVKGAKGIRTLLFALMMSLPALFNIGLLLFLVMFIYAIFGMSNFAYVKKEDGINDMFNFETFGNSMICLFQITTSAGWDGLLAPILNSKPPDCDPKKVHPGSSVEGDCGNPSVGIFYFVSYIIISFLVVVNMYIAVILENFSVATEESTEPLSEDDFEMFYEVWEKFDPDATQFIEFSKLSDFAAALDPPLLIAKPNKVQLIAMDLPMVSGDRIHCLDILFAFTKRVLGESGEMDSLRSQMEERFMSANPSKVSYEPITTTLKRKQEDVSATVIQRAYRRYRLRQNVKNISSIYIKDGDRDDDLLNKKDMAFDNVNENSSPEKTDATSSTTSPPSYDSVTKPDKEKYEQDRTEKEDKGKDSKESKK
Assay: Whole-cell patch-clamp, HEK293 cells stably expressing human Nav1.7 with GFP or FGF13-GFP
Assay type: cell-based
Conditions: for Activation / LTI, 2nd Pulse / LTI, 3rd Pulse / LTI, 4th Pulse / Peak Density / Steady-State inactivation / Tau (τ): HEK293 Nav1.7; for Figure 4G, Mean per step (normalized) / Figure 4H, Mean per step (step 1 = 100): N 10
Method: Whole-cell patch clamp electrophysiology
HEK293-Nav1.7 cells, HEK293 stably expressing human Nav1.6 (HEK-Nav1.6), HEK293 stably expressing human Nav1.5 (HEK-Nav1.5), human hIPSC-derived sensory neurons (RealDRGTM from Anatomic Incorporated 1020F1-1M) and donor-derived DRG neurons were plated at low density on glass coverslips and processed for whole-cell patch clamp electrophysiology in voltage-clamp and/or current clamp mode. Whole-cell patch electrophysiological experiments were conducted following previously published studies (26). Current densities were obtained by dividing INa amplitude by membrane capacitance. Current –voltage relationships were generated by plotting current density as a function of the […]. Conductance (G Na) was calculated by the […]
where INa is the current amplitude at voltage Vm, and Erev is the Na+ reversal potential.
Activation curves were derived by plotting normalized GNa as a function of test potential and fitted using […]
Where GNa,Max is the maximum conductance, Va is the membrane potential of half-maximal activation, Em is the membrane voltage and k is the slope factor. For steady -state inactivation, normalized current amplitude (INa/INa,Max) at the test potential was plotted as a function of prepulse potential (Vm) and fitted using the […]
Where Vh is the potential of half-maximal inactivation, E m is the membrane voltage, and k is the slope factor.
Transient INa inactivation decay was estimated with the standard exponential equation. Inactivation time constant (tau, τ) was fitted with the following equation: […]
where I(t) is the amplitude of the current at time t and Iss is the steady-state current during a single voltage-step.
The goodness of fitting was determined by correlation coefficient (R), and the cutoff of R was set at 0.85. To observe effects on long-term inactivation (LTI), a four-step protocol was employed during which cells were subjected to four 0 mV, 20 ms depolarization pulses separated by −90 mV, 40 ms recovery intervals. To control for various cell sizes, the current densities were calculated by dividing INa peak current amplitude/membrane capacitance (Cm). To represent the fraction of channels entering into LTI, the peak INa observed during depolarization cycles 2-4 was normalized to the peak INa observed during depolarization cycle 1 (INa/INa,Cycle 1) and plotted as a function of the depolarization cycle.
The cumulative (frequency-dependent) use-dependency was determined by applying 20 pulses with a depolarization to −10 mV (50 ms duration) and 50 ms recovery intervals with a train of 20 pulses at 10 Hz from a holding potential at -70 mV. The current pulses were normalized to the first reco rded pulse and the currents at the 2nd to 20th pulses were compared. The same train was used to record use-dependency at various frequencies […]
The rate of recovery from inactivation was recorded at -80 mV with a standard repriming voltage protocol.
The cells were prepulsed to -20 mV for 20 ms to inactivate all currents, then driven back to the recovery potential (Vrec) for increasing recovery durations before the test pulse to 0 mV. The maximum pulse rate was 0.5 Hz. The […]
follows previous publications (16). The time constants were estimated from single exponential decay to time courses measured at recovery potentials ranging from -140 to -60 mV with the protocol as mentioned above.
Electrophysiological Recordings
HEK293 cells: Electrophysiological recordings in HEK293 stably expressing Nav1.7 (HEK-Nav1.7), Nav1.5 (HEK-Nav1.5) or Nav1.6 (HEK-Nav1.6) were performed at room temperature using a MultiClamp 700B or an Axopatch 200B amplifier (Molecular Devices) after incubating coverslips for 60 minutes either with 0.1% DMSO or 50 μM PW164 or ZL192 in the extracellular solution. The composition of recording solutions consisted of the […]
following salts: extracellular (mM): 140 NaCl, 3 KCl, 1 MgCl2, 1 CaCl2, 10 HEPES, 10 glucose, pH 7.3; […]
intracellular (mM): 130 CH3O3 SCs, 1 EGTA, 10 NaCl, 10 HEPES, pH 7.3. […]

Q: Which results are given for CC(=O)N[C@@H](Cc1ccccc1)C(=O)N[C@@H](CC(C)C)C(=O)N1CCC[C@H]1C(=O)N[C@@H](CCCCN)C(=O)Nc1ccccc1 [ZL192] (Ac-FLPK-NHPh)?
A: Activation (FGF13-GFP + ZL192 50 μM): −26.0 ± 0.8 mV; LTI, 2nd Pulse (FGF13-GFP + ZL192 50 μM): −69.72 ± 5.21 % maximal Na+ current; LTI, 3rd Pulse (FGF13-GFP + ZL192 50 μM): −60.33 ± 5.60 % maximal Na+ current; LTI, 4th Pulse (FGF13-GFP + ZL192 50 μM): −59.34 ± 4.68 % maximal Na+ current; Peak Density (FGF13-GFP + ZL192 50 μM): −139.7 ± 12.3 pA/pF; Steady-State inactivation (FGF13-GFP + ZL192 50 μM): −66.7 ± 2.6 mV; Tau (τ) (FGF13-GFP + ZL192 50 μM): 1.2 ± 0.06 ms; Activation (GFP + ZL192 50 μM): −25.7 ± 0.8 mV; LTI, 2nd Pulse (GFP + ZL192 50 μM): −67.94 ± 3.77 % maximal Na+ current; LTI, 3rd Pulse (GFP + ZL192 50 μM): −62.35 ± 57.35 % maximal Na+ current; LTI, 4th Pulse (GFP + ZL192 50 μM): −60.93 ± 3.90 % maximal Na+ current; Peak Density (GFP + ZL192 50 μM): −73.5 ± 8.1 pA/pF; Steady-State inactivation (GFP + ZL192 50 μM): −82.8 ± 1.1 mV; Tau (τ) (GFP + ZL192 50 μM): 1.3 ± 0.1 ms; EC50 (HEK-Nav1.7 coexpressing FGF13, Fig 4D, read-out: EC50, potentiation of INa): 8.5 ± 0.9 µM; Current density pA/pF (Figure 4D), individual cells (Nav1.7 + FGF13-GFP): -168.188 pA/pF and -158.115 pA/pF and -119.568 pA/pF and -127.538 pA/pF and -145.958 pA/pF and -170.525 pA/pF and -75.8621 pA/pF and -128.86 pA/pF and -208.183 pA/pF and -94.6899 pA/pF; pA/pF Dose response (Figure 4D), individual cells (Nav1.7 + FGF13-GFP, Log (conc(M) -4)): -162.222 pA/pF and -131.216 pA/pF and -115.311 pA/pF and -179.051 pA/pF and -125.271 pA/pF and -135.274 pA/pF; pA/pF Dose response (Figure 4D), individual cells (Nav1.7 + FGF13-GFP, Log (conc(M) -4.12)): -133.535 pA/pF and -142.569 pA/pF and -148.889 pA/pF; pA/pF Dose response (Figure 4D), individual cells (Nav1.7 + FGF13-GFP, Log (conc(M) -4.22)): -94.6899 pA/pF and -168.188 pA/pF and -158.115 pA/pF and -119.568 pA/pF and -127.538 pA/pF and -145.958 pA/pF and -170.525 pA/pF and -75.8621 pA/pF and -128.86 pA/pF and -208.183 pA/pF; pA/pF Dose response (Figure 4D), individual cells (Nav1.7 + FGF13-GFP, Log (conc(M) -4.6)): -142.47 pA/pF and -131.114 pA/pF and -147.185 pA/pF and -132.461 pA/pF and -139.907 pA/pF and -150.76 pA/pF and -140.066 pA/pF; pA/pF Dose response (Figure 4D), individual cells (Nav1.7 + FGF13-GFP, Log (conc(M) -4.82)): -154.895 pA/pF and -103.016 pA/pF and -135.94 pA/pF and -128.008 pA/pF and -135.582 pA/pF and -110.637 pA/pF and -137.656 pA/pF (2×); pA/pF Dose response (Figure 4D), individual cells (Nav1.7 + FGF13-GFP, Log (conc(M) -5)): -99.4552 pA/pF and -132.222 pA/pF and -121.216 pA/pF and -111.311 pA/pF and -169.051 pA/pF and -139.271 pA/pF and -105.274 pA/pF; pA/pF Dose response (Figure 4D), individual cells (Nav1.7 + FGF13-GFP, Log (conc(M) -5.5)): -112.13 pA/pF and -130.035 pA/pF and -105.009 pA/pF and -123.737 pA/pF and -114.192 pA/pF and -90.2752 pA/pF and -117.316 pA/pF; pA/pF Dose response (Figure 4D), individual cells (Nav1.7 + FGF13-GFP, Log (conc(M) -6)): -149.506 pA/pF and -142.879 pA/pF and -66.945 pA/pF and -161.516 pA/pF and -59.6444 pA/pF and -67.5751 pA/pF and -70.501 pA/pF and -91.4611 pA/pF and -141.024 pA/pF and -68.796 pA/pF and -57.939 pA/pF; Figure 4G, Mean per step (normalized) (Nav1.7 + FGF13-GFP, Steps 1): 1; Figure 4H, Mean per step (step 1 = 100) (Nav1.7 + FGF13-GFP, Steps 1): 100; Figure 4H, Mean per step (step 1 = 100) (Nav1.7 + FGF13-GFP, Steps 2): 69.7172; Figure 4G, Mean per step (normalized) (Nav1.7 + FGF13-GFP, Steps 3): 0.9185; Figure 4H, Mean per step (step 1 = 100) (Nav1.7 + FGF13-GFP, Steps 3): 60.3376; Figure 4H, Mean per step (step 1 = 100) (Nav1.7 + FGF13-GFP, Steps 4): 59.3427; Figure 4G, Mean per step (normalized) (Nav1.7 + FGF13-GFP, Steps 5): 0.9162; Figure 4G, Mean per step (normalized) (Nav1.7 + FGF13-GFP, Steps 10): 0.8818; Figure 4G, Mean per step (normalized) (Nav1.7 + FGF13-GFP, Steps 15): 0.8857
